In patent US9006177B2 (Advinus Therapeutics Limited, priority 2010, dated 2015):

molecular target: T1, Human A2A adenosine receptor (Homo sapiens, UniProt P29274); experiment: Radioligand binding for A2A adenosine receptor ([3H]-ZM-241385 competition, HEK-A2A membranes); details: HEK-293 membranes, 2 nM [3H]-ZM-241385, read-out: A2A Cell based Functional Ki*
T1 construct: expressed in transfected cells
Excerpt: […]

T1 sequence (P29274 whole entry): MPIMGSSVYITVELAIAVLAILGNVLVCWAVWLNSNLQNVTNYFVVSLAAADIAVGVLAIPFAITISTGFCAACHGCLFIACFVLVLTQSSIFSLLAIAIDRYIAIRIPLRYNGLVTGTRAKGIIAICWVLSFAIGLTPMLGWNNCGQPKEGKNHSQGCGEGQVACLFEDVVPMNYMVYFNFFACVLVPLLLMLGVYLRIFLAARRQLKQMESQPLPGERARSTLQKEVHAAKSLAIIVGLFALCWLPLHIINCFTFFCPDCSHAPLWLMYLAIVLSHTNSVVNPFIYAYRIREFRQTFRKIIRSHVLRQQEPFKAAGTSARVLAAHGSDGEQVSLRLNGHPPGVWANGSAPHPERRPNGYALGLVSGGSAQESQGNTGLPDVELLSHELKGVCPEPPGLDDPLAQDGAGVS

Ki | Compound
0.1 to 10 nM | COCCOc1ccc(N2CCN(CCn3c(=O)n(C)c4c3nc(N)n3nc(-c5ccco5)nc43)CC2)cc1 [Example A1]
0.1 to 10 nM | Cc1ccc(N2CCN(CCn3c(=O)n(C)c4c3nc(N)n3nc(-c5ccco5)nc43)CC2)cc1 [Example A7, 5-Amino-8-(2-furyl)-1-methyl-3-[2-[4-(p-tolyl)piperazin-1-yl]ethyl]-[1,2,4]triazolo[5,1-f]purin-2-one]
0.1 to 10 nM | COc1ccc(N2CCN(CCn3c(=O)n(C)c4c3nc(N)n3nc(-c5ccco5)nc43)CC2)c(F)c1 [Example A9]
0.1 to 10 nM | Cn1c(=O)n(CCN2CCN(c3ccc(C(C)(C)O)cc3)CC2)c2nc(N)n3nc(-c4ccco4)nc3c21 [Example A13]
0.1 to 10 nM | COCCOc1ccc(N2CCN(CCn3c(=O)n(C)c4c3nc(N)n3nc(-c5ccco5)nc43)CC2)c(F)c1 [Example A31]
10 to 100 nM | Cn1c(=O)n(CCN2CCN(CC3CC3)CC2)c2nc(N)n3nc(-c4ccco4)nc3c21 [Example A36, 5-Amino-3-[2-[4-(cyclopropylmethyl)piperazin-1-yl]ethyl]-8-(2-furyl)-1-methyl-[1,2,4]triazolo[5,1-f]purin-2-one]
0.1 to 10 nM | CN(C)S(=O)(=O)N1CCN(CCn2c(=O)n(C)c3c2nc(N)n2nc(-c4ccco4)nc32)CC1 [Example A38, 4-[2-[5-Amino-8-(2-furyl)-1-methyl-2-oxo-[1,2,4]triazolo[5,1-f]purin-3-yl]ethyl]-N,N-dimethyl-piperazine-1-sulfonamide]
0.1 to 10 nM | Cn1c(=O)n(CCN2CCN(c3ccc(OC4CCOC4)cc3)CC2)c2nc(N)n3nc(-c4ccco4)nc3c21 (stereo not drawn) [Example A39, 5-Amino-8-(2-furyl)-1-methyl-3-[2-[4-(4-tetrahydrofuran-3-yloxyphenyl)piperazin-1-yl]ethyl]-[1,2,4]triazolo[5,1-f]purin-2-one]
0.1 to 10 nM | Cc1cnc2c(c1)CN(CCn1c(=O)n(C)c3c1nc(N)n1nc(-c4ccco4)nc31)CC2 [Example A42, 5-Amino-8-(2-furyl)-1-methyl-3-[2-(3-methyl-7,8-dihydro-5H-1,6-naphthyridin-6-yl)ethyl]-[1,2,4]triazolo[5,1-f]purin-2-one]
0.1 to 10 nM | COc1ccc(CCn2c(=O)n(C)c3c2nc(N)n2nc(-c4ccco4)nc32)cc1 [Example A57]
0.1 to 10 nM | Cn1c(=O)n(CCN2CCN(c3ccc(OC(F)F)cc3)CC2)c2nc(N)n3nc(-c4ccco4)nc3c21 [Example A58, 5-amino-3-[2-[4-[4-(difluoromethoxy)phenyl]piperazin-1-yl]ethyl]-8-(2-furyl)-1-methyl-[1,2,4]triazolo[5,1-f]purin-2-one]
0.1 to 10 nM | Cn1c(=O)n(CCN2CCN(C(=O)C3CC3)CC2)c2nc(N)n3nc(-c4ccco4)nc3c21 [Example A62, 5-Amino-3-[2-[4-(cyclopropanecarbonyl)piperazin-1-yl]ethyl]-8-(2-furyl)-1-methyl-[1,2,4]triazolo[5,1-f]purin-2-one]
10 to 100 nM | Cn1c(=O)n(CCN2CCN(C(=O)CC3CC3)CC2)c2nc(N)n3nc(-c4ccco4)nc3c21 [Example A63, 5-Amino-3-[2-[4-(2-cyclopropylacetyl)piperazin-1-yl]ethyl]-8-(2-furyl)-1-methyl-[1,2,4]triazolo[5,1-f]purin-2-one]
0.1 to 10 nM | CCOc1ccc(N2CCN(CCn3c(=O)n(CC4CC4)c4c3nc(N)n3nc(-c5ccco5)nc43)CC2)cc1 [Example C1, 5-Amino-1-(cyclopropylmethyl)-3-[2-[4-(4-ethoxyphenyl)piperazin-1-yl]ethyl]-8-(2-furyl)-[1,2,4]triazolo[5,1-f]purin-2-one]
0.1 to 10 nM | CCn1c(=O)n(CCn2cc(-c3ccc(F)cc3F)cn2)c2nc(N)n3nc(-c4ccco4)nc3c21 [Example D3]
0.1 to 10 nM | Nc1nc2c(c3nc(-c4ccco4)nn13)n(CC1CC1)c(=O)n2CCn1cc(C(=O)O)cn1 [Example E1, 1-[2-[5-Amino-1-(cyclopropylmethyl)-8-(2-furyl)-2-oxo-[1,2,4]triazolo[5,1-f]purin-3-yl]ethyl]pyrazole-4-carboxylic acid]
10 to 100 nM | CCn1c(=O)n(CCN2CCN(c3ccc(F)cc3F)CC2)c2nc(N)n3nc(-c4ccco4)nc3c21 [Example G2]
0.1 to 10 nM | Nc1nc2c(c3nc(-c4ccco4)nn13)n(CC(F)(F)F)c(=O)n2CCN1CCN(c2ccc(F)cc2F)CC1 [Example H2, 5-Amino-3-{2-[4-(2,4-difluoro-phenyl)-piperazin-1-yl]-ethyl}-8-furan-2-yl-1-(2,2,2-trifluoro-ethyl)-1,3-dihydro-[1,2,4]triazolo[5,1-f]purin-2-one]
0.1 to 10 nM | COCCOc1ccc(N2CCN(CCn3c(=O)n(C)c4c3nc(N)n3nc(-c5nccs5)nc43)CC2)cc1 [Example M1, 5-Amino-3-[2-[4-[4-(2-methoxyethoxy)phenyl]piperazin-1-yl]ethyl]-1-methyl-8-thiazol-2-yl-[1,2,4]triazolo[5,1-f]purin-2-one]
10 to 100 nM | Cn1c(=O)n(CCN2CCN(C(=O)CC3CC3)CC2)c2nc(N)n3nc(-c4nccs4)nc3c21 [Example M3, 5-Amino-3-[2-[4-(2-cyclopropylacetyl)piperazin-1-yl]ethyl]-1-methyl-8-thiazol-2-yl-[1,2,4]triazolo[5,1-f]purin-2-one]
0.1 to 10 nM | Cc1cnc2c(c1)CN(CCn1c(=O)n(C)c3c1nc(N)n1nc(-c4nccs4)nc31)CC2 [Example M6, 5-Amino-1-methyl-3-[2-(3-methyl-7,8-dihydro-5H-1,6-naphthyridin-6-yl)ethyl]-8-thiazol-2-yl-[1,2,4]triazolo[5,1-f]purin-2-one]
